Patent publication US7678795B2, “Pyridazines as 11b-HSD1 inhibitors” (Hoffman-La Roche Inc., priority 2005, dated 2010)

Molecular target: T1, human 11beta-HSD1 (Homo sapiens, UniProt P28845)
T1 construct: made in house; host or cells: HEK293 cells (ATCC CRL-1573), transient transfection; microsomal fraction
Experiment: Microsome assay (cortisone to cortisol conversion, ELISA-based cortisol detection)
Type: biochemical
Settings: microsomes from HEK293 cells transiently expressing human 11beta-HSD1; Cortisone 50-200 nM, NADPH 1 mM; 60 min at 37° C.; read-out: 11-beta-HSD 1 IC50
Description: Transient Expression and Partial Purification:
The cDNA encoding the human 11beta-HSD1 protein was cloned into the expression vector pcDNA3 ([…]). This construct (for details see Alex Odermatt et al.; J Biol. Chem.,1999, Vol. 274, Issue 40, 28762-28770) was used to transiently express the protein in HEK293 cells (ATCC number: CRL-1573, described in Graham, F. L., Smiley, J., Russell, W. C., Nairn, R.; (1977)) using lipofectamine. 48 h after transfection cells were washed twice with ice-cold PBS (Phosphate buffered Saline). To 1 volume of cell suspension in PBS 2 volumes of ice-cold lysis buffer (50 mM Tris; pH7.5; 1 mM EDTA; 100 mM NaCl) were added. The cells were lysed by Potter-homogenization (20 strokes). The resulting homogenate was sonicated wit a tip sonicator (10% output; 2×30 sec.) and cleared by a low speed centrifugation (10 min×9000 g; 4° C.). […]
Microsomes isolated from HEK293 cells transiently expressing human 11beta-HSD1 (for details see above) were incubated in assay buffer (100 mM NaCl; 1 mM EDTA; 1 mM EGTA; 1 mM MgCl; 250 mM Sucrose; 20 mM Tris pH 7.4; Cortisone 50-200 nM and NADPH 1 mM) together with different concentrations of test substances. […] The amount of Cortisol produced in this assay was determined using a commercially available, ELISA-based Cortisol-detection kit (Distributed by Assay Design, Inc.). […]

T1 sequence (P28845 whole entry): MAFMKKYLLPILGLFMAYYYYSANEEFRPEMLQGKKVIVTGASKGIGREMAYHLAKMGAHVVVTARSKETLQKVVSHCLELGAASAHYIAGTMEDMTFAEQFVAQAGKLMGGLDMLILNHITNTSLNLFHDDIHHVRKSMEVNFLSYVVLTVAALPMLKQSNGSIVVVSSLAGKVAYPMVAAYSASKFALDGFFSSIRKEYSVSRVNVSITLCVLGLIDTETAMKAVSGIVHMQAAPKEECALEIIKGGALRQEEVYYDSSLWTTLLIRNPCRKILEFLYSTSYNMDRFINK

SMILES | IC50 [nM]
FC(F)(F)c1ccccc1-c1cc2c(nn1)CCCCCC2 [Example 41, 3-(2-Trifluoromethyl-phenyl)-5,6,7,8,9,10-hexahydro-cycloocta[c]pyridazine] | 3
Cc1c(-c2cc3c(nn2)[C@@]2(C)CC[C@@H]3C2(C)C)cnn1-c1ccccc1 [Example 1, (1S,8R)-1,11,11-Trimethyl-5-(5-methyl-1-phenyl-1H-pyrazol-4-yl)-3,4-diaza-tricyclo[6.2.1.0^2,7]undeca-2(7),3,5-triene] | 30
